# Data taken from patent US20150212068A1, “Cholyl-L-Lysyl-Fluorescein Assay” (Novassay SA, priority 2012, published 2015).
# “Also recorded” adds a separate entry of the source.
# Tested on: serum/plasma proteins
# Experiment: Effect of ANS on CLF recovery in the labelled-antibody format
# Assay type: in vitro ADME
# Settings: human serum/plasma spiked with CLF, competitive immunoassay
# Text: This was successful in shifting the mean recovery to ˜100%. However, an unacceptably wide sample-to-sample variation was still observed (˜70-180%), therefore it was concluded that a blocker approach would be required, in which a chemical agent is used to displace the analyte from the binding proteins, so that it can be recovered effectively in the assay. […] ANS was therefore evaluated in more detail in this format.
# The following study was executed to assess the recovery of CLF following spiking into human serum in assays, in the presence and absence of ANS.
# 25 μl of standard (in buffer) was added to streptavidin coated wells, followed by 100 ul of 20 ng/ml biotin-fluorescein (one formulation containing 0.2% ANS, the other without) and 100 μl of anti-fluorescein HRP (100 ng/ml). After 30 minutes incubation (RT/static) the wells were washed and 100 μl of SureBlue Reserve TMB substrate added. After a further 10 minutes incubation, 100 μl of 1M HCl was added and the colour intensity measured at 450 nm.
# 3 plasma samples (Lithium heparin) were spiked with CLF at […]; these concentrations (the expected values) are noted in the relevant sample IDs.
smiles,measurement,value
"O=S(=O)(O)c1cccc2cccc(Nc3ccccc3)c12 [ANS, 8-anilino-1-naphthalene sulfonic acid]",displacement of CLF from serum/plasma proteins by blocker,effective in displacing CLF bound to serum/plasma proteins; also recorded: able to displace CLF from serum proteins
